Measurements: US11739074B2, “Ras inhibitors” (Revolution Medicines, Inc., priority 2019, dated 2023)
Read-outs that look alike come from different tables or passages of the source. Blank lines part the entries; values can stand above or below the molecule they belong to.

What was measured:
KRAS G13D = KRAS G13D (Homo sapiens, UniProt P01116+P62937, G13D); test: Ras-Raf disruption/FRET/MOA assay, KRAS G13D; format: biochemical
Text: (§1) Disruption of B-Raf Ras-Binding Domain (BRAF^RBD) Interaction with K-Ras by Compounds of the Invention (Also Called a FRET Assay or an MOA Assay)
(§2) Note—The following protocol describes a procedure for monitoring disruption of K-Ras G12C (GMP-PNP) binding to BRAF^RBD by a compound of the invention. This protocol may also be executed substituting other Ras proteins or nucleotides, such as K-Ras G12D and K-Ras G13D.
(§3) The purpose of this biochemical assay was to measure the ability of test compounds to facilitate ternary complex formation between a nucleotide-loaded K-Ras isoform and Cyclophilin A; the resulting ternary complex disrupts binding to a BRAF^RBD construct, inhibiting K-Ras signaling through a RAF effector.
(§4) In assay buffer containing 25 mM HEPES pH 7.3, 0.002% Tween20, 0.1% BSA, 100 mM NaCl and 5 mM MgCl2, tagless Cyclophilin A, His6-K-Ras-GMPPNP, and GST-BRAF^RBD were combined in a 384-well assay plate at final concentrations of 25 μM, 12.5 nM, and 50 nM, respectively. Compound was present in plate wells as a 10-point 3-fold dilution series starting at a final concentration of 30 μM. After incubation at 25° C. for 3 hours, a mixture of anti-His Eu-W1024 and anti-GST allophycocyanin was then added to assay sample wells at final concentrations of 10 nM and 50 nM, respectively, and the reaction incubated for an additional 1.5 hours. […] Compounds that facilitate disruption of a K-Ras:RAF complex were identified as those eliciting a decrease in the TR-FRET ratio relative to DMSO control wells.

NRAS G12C = molecular target: T1, NRAS G12C (Homo sapiens, UniProt P01111+P62937, G12C); test: Ras-Raf disruption/FRET/MOA assay, NRAS G12C; format: biochemical
T1 construct: His6
T1 sequence (P01111 whole entry G12C): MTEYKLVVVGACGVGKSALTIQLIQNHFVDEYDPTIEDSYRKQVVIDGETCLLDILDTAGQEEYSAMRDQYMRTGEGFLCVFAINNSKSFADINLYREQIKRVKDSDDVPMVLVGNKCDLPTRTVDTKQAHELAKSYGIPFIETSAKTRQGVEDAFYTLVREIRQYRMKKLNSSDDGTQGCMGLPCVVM
T1 sequence (P62937 whole entry): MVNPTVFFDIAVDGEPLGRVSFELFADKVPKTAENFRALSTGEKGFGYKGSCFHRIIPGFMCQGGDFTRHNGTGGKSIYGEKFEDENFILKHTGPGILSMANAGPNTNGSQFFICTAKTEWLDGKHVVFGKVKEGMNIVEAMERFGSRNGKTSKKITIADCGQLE
Text: as §1, §2, §3, §4

KRAS WT = KRAS WT (Homo sapiens, UniProt P01116+P62937); test: Ras-Raf disruption/FRET/MOA assay, KRAS WT; format: biochemical
Sequence of KRAS WT (P01116 1-169 isoform P01116-2 limits assumed): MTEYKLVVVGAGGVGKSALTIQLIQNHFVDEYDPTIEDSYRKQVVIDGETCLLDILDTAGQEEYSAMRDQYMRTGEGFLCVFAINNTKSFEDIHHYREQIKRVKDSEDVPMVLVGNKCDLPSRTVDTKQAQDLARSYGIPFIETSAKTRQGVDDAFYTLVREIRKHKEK
Sequence of KRAS WT (P62937 whole entry): as the sequence (P62937 whole entry) above
Text: as §1, §2, §3, §4

AsPC-1 (K-Ras G12D) [1] = test: Potency assay: pERK in AsPC-1 cells; format: cell-based; conditions: Homo sapiens, ASPC1, read-out: pERK EC50 (AsPC-1 KRAS G12D)
KRAS G12V = KRAS G12V (Homo sapiens, UniProt P01116+P62937, G12V); test: Ras-Raf disruption/FRET/MOA assay, KRAS G12V; format: biochemical
Sequence of KRAS G12V (P01116 1-169 isoform P01116-2 G12V limits assumed): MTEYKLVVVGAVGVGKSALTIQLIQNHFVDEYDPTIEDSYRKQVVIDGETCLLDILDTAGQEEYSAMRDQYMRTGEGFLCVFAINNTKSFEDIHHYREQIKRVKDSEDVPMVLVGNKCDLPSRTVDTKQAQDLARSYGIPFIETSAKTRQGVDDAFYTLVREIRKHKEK
Sequence of KRAS G12V (P62937 whole entry): as the sequence (P62937 whole entry) above
Text: as §1, §2, §3, §4

KRAS G13C = KRAS G13C (Homo sapiens, UniProt P01116+P62937, G13C); test: Ras-Raf disruption/FRET/MOA assay, KRAS G13C; format: biochemical
Sequence of KRAS G13C (P01116 1-169 isoform P01116-2 G13C limits assumed): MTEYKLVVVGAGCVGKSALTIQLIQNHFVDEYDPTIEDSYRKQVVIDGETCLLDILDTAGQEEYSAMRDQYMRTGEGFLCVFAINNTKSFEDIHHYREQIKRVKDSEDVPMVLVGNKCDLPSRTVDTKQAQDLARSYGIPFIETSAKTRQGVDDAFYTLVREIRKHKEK
Sequence of KRAS G13C (P62937 whole entry): as the sequence (P62937 whole entry) above
Text: as §1, §2, §3, §4

KRAS G12D = KRAS G12D (Homo sapiens, UniProt P01116+P62937, G12D); test: Ras-Raf disruption/FRET/MOA assay, KRAS G12D; format: biochemical
Sequence of KRAS G12D (P01116 1-169 isoform P01116-2 G12D limits assumed): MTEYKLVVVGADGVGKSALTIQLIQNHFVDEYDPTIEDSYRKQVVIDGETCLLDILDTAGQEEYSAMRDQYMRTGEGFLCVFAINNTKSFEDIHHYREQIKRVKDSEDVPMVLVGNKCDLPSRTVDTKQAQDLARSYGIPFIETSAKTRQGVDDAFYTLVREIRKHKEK
Sequence of KRAS G12D (P62937 whole entry): as the sequence (P62937 whole entry) above
Text: as §1, §2, §3, §4

KRAS G12S = KRAS G12S (Homo sapiens, UniProt P01116+P62937, G12S); test: Ras-Raf disruption/FRET/MOA assay, KRAS G12S; format: biochemical
Sequence of KRAS G12S (P01116 1-169 isoform P01116-2 G12S limits assumed): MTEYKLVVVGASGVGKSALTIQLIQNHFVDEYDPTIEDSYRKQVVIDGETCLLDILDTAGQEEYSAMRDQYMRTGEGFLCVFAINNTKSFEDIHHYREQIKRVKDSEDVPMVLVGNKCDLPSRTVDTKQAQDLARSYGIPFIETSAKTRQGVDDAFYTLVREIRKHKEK
Sequence of KRAS G12S (P62937 whole entry): as the sequence (P62937 whole entry) above
Text: as §1, §2, §3, §4

AsPC-1 (K-Ras G12D) [2] = test: CellTiter-Glo cell viability assay, AsPC-1; format: cell-based; conditions: Homo sapiens, ASPC1, 120 h
Method in brief: (§5)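 Cells already in plates received compound by direct dispensing. After incubation to day 5, plates sat at room temperature roughly 30 minutes, then ATP-based luminescence was measured and values derived from a four-parameter fit of DMSO-normalized data.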

NCI-H358 (K-Ras G12C) = test: CellTiter-Glo cell viability assay, H358; format: cell-based; conditions: Homo sapiens, NCI-H358, 120 h
Method in brief: as §5

KRAS G12C = KRAS G12C (Homo sapiens, UniProt P01116+P62937, G12C); test: Ras-Raf disruption/FRET/MOA assay, KRAS G12C; format: biochemical
Sequence of KRAS G12C (P01116 1-169 isoform P01116-2 G12C limits assumed): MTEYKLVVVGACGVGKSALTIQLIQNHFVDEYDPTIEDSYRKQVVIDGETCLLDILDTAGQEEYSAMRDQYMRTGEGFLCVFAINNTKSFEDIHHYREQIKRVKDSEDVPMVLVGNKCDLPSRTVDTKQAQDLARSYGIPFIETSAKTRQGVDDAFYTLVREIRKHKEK
Sequence of KRAS G12C (P62937 whole entry): as the sequence (P62937 whole entry) above
Text: as §1, §2, §3, §4

[3] = NRAS G12C FRET data IC50, NRAS G12C
[4] = AsPC-1, K-Ras G12D, 5-day treatment, read-out: AsPC-1 Cell Viability IC50
[5] = NCI-H358, K-Ras G12C, 5-day treatment, read-out: H358 Cell Viability IC50
[6] = disruption of BRAF RBD binding, with Cyclophilin A, read-out: KRAS G12C FRET IC50
[7] = disruption of BRAF RBD binding, with Cyclophilin A, read-out: KRAS G12V FRET IC50
[8] = disruption of BRAF RBD binding, with Cyclophilin A, read-out: KRAS G13D FRET IC50
[9] = NRAS G12C, read-out: NRAS G12C FRET data IC50
[10] = disruption of BRAF RBD binding, with Cyclophilin A, read-out: KRAS WT FRET IC50
[11] = disruption of BRAF RBD binding, with Cyclophilin A, read-out: KRAS G13C FRET IC50
[12] = disruption of BRAF RBD binding, with Cyclophilin A, read-out: KRAS G12D FRET IC50
[13] = disruption of BRAF RBD binding, with Cyclophilin A, read-out: KRAS G12S FRET IC50

Sequence of KRAS G13D (P01116 1-169 isoform P01116-2 G13D limits assumed): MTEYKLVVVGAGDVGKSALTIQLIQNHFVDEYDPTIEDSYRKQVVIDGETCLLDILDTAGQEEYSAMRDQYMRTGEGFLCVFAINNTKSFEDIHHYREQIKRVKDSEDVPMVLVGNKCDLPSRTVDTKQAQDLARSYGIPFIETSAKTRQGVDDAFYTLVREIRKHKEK
Sequence of KRAS G13D (P62937 whole entry, the tested form may be a part): as the sequence (P62937 whole entry) above

SMILES: CCn1c(-c2cnccc2COC)c2c3cc(ccc31)-c1cc(O)cc(c1)C[C@H](NC(=O)[C@H](C(C)C)N(C)C(=O)CN(C)C(=O)C1CN1)C(=O)N1CCC[C@H](N1)C(=O)OCC(C)(C)C2 (stereo partly shown) [Compound 33]
IC50 (KRAS G13D): 100 to 1000 nM | IC50 (NRAS G12C; [3]): 10 to 100 nM | IC50 (KRAS WT): 100 to 1000 nM | EC50 (AsPC-1 (K-Ras G12D) [1]): < 5000 nM | IC50 (KRAS G12V): 100 to 1000 nM | IC50 (KRAS G13C): 100 to 1000 nM | IC50 (KRAS G12D): 100 to 1000 nM | IC50 (KRAS G12S): 10 to 100 nM

SMILES: CCn1c(-c2cnccc2COC)c2c3cc(ccc31)-c1cc(O)cc(c1)C[C@H](NC(=O)[C@@H](CN(C)C(=O)[C@@H]1CN1)C(C)C)C(=O)N1CCC[C@H](N1)C(=O)OCC(C)(C)C2 [Compound 60]
IC50 (AsPC-1 (K-Ras G12D) [2]; [4]): 1000 to 10000 nM | IC50 (NCI-H358 (K-Ras G12C); [5]): 1000 to 10000 nM | IC50 (KRAS G12C; [6]): > 10000 nM | IC50 (KRAS G12V; [7]): > 10000 nM

IC50 (AsPC-1 (K-Ras G12D) [2]; [4]): 1000 to 10000 nM | IC50 (NCI-H358 (K-Ras G12C); [5]): 100 to 1000 nM | IC50 (KRAS G12V; [7]): > 10000 nM
SMILES: CCn1c(-c2cnccc2COC)c2c3cc(ccc31)-c1cccc(c1)C[C@H](NC(=O)[C@H](C(C)C)N(C)C(=O)CCN=C=Nc1ccccc1COC)C(=O)N1CCC[C@H](N1)C(=O)OCC(C)(C)C2 [Compound 63]

SMILES: CCn1c(-c2cnccc2COC)c2c3cc(ccc31)-c1cc(O)cc(c1)C[C@H](NC(=O)[C@@H](CN(C)C(=O)[C@H]1CN1)C(C)C)C(=O)N1CCC[C@H](N1)C(=O)OCC(C)(C)C2 [Compound 99]
IC50 (AsPC-1 (K-Ras G12D) [2]; [4]): > 10000 nM | IC50 (KRAS G12C; [6]): > 10000 nM | IC50 (KRAS G12V; [7]): > 10000 nM

IC50 (KRAS G13D; [8]): 100 to 1000 nM | IC50 (AsPC-1 (K-Ras G12D) [2]; [4]): > 10000 nM | IC50 (NRAS G12C; [9]): 100 to 1000 nM | IC50 (KRAS WT; [10]): 100 to 1000 nM | IC50 (KRAS G12C; [6]): 100 to 1000 nM | IC50 (KRAS G12V; [7]): 100 to 1000 nM | IC50 (KRAS G13C; [11]): 100 to 1000 nM | IC50 (KRAS G12D; [12]): 1000 to 10000 nM | IC50 (KRAS G12S; [13]): 100 to 1000 nM
SMILES: CCn1c(-c2cnccc2COC)c2c3cc(ccc31)-c1cc(O)cc(c1)C[C@H](NC(=O)[C@H](C(C)C)N(C)C(=O)[C@H]1CCN(C(=O)N3C[C@H]3C(=O)OC)C1)C(=O)N1CCC[C@H](N1)C(=O)OCC(C)(C)C2 [Compound 111]

SMILES: CCn1c(-c2cnccc2COC)c2c3cc(ccc31)-c1cc(O)cc(c1)C[C@H](NC(=O)[C@H](C(C)C)N(C)C(=O)CN(C)C(=O)[C@H]1N[C@H]1c1ccccc1)C(=O)N1CCC[C@H](N1)C(=O)OCC(C)(C)C2 [Compound 116]
IC50 (KRAS G13D): 100 to 1000 nM | IC50 (AsPC-1 (K-Ras G12D) [2]; read-out: AsPC-1 Cell Viability IC50, AsPC-1, K-Ras G12D, 5-day treatment): > 10000 nM | IC50 (NRAS G12C; [3]): 100 to 1000 nM | IC50 (KRAS WT): 10 to 100 nM | IC50 (KRAS G12C): 100 to 1000 nM | IC50 (KRAS G12V): 100 to 1000 nM | IC50 (KRAS G13C): 100 to 1000 nM | IC50 (KRAS G12D): 1000 to 10000 nM | IC50 (KRAS G12S): 100 to 1000 nM

IC50 (KRAS G13D; [8]): > 10000 nM | IC50 (AsPC-1 (K-Ras G12D) [2]; [4]): 1000 to 10000 nM | IC50 (NRAS G12C; [9]): 100 to 1000 nM | IC50 (KRAS WT; [10]): 1000 to 10000 nM | IC50 (KRAS G12C; [6]): 100 to 1000 nM | IC50 (KRAS G12V; [7]): 1000 to 10000 nM | IC50 (KRAS G13C; [11]): 100 to 1000 nM | IC50 (KRAS G12D; [12]): 1000 to 10000 nM | IC50 (KRAS G12S; [13]): 1000 to 10000 nM
SMILES: CCn1c(-c2cccnc2[C@H](C)OC)c2c3cc(ccc31)-c1cccc(c1)C[C@H](NC(=O)[C@H](C(C)C)N1CC[C@H](CN=C=NCCOC)C1)C(=O)N1CCC[C@H](N1)C(=O)OCC(C)(C)C2 [Compound 122]

SMILES: CCn1c(-c2cccnc2[C@H](C)OC)c2c3cc(ccc31)-c1cc(O)cc(c1)C[C@H](NC(=O)[C@H](C(C)C)N(C)C(=O)C1CC3(C1)CN(C(=O)[C@H]1CN1)C3)C(=O)N1CCC[C@H](N1)C(=O)OCC(C)(C)C2 [Compound 181]
IC50 (AsPC-1 (K-Ras G12D) [2]; [4]): > 10000 nM | IC50 (KRAS G12D; [12]): 100 to 1000 nM

SMILES: CCn1c(-c2cccnc2COC)c2c3cc(ccc31)-c1cc(O)cc(c1)C[C@H](NC(=O)[C@H](C(C)C)N(C)C(=O)CCNC(=O)NCCCl)C(=O)N1CCC[C@H](N1)C(=O)OCC(C)(C)C2 [Example 25, (2S)-2-(3-(3-(2-chloroethyl)ureido)-N-methylpropanamido)-N-((6^3S,4S)-1^1-ethyl-2^5-hydroxy-1^2-(2-(methoxymethyl)pyridin-3-yl)-10,10-dimethyl-5,7-dioxo-6^1,6^2,6^3,6^4,6^5,6^6-hexahydro-1^1H-8-oxa-1(5,3)-indola-6(1,3)-pyridazina-2(1,3)-benzenacycloundecaphane-4-yl)-3-methylbutanamide]
IC50 (NCI-H358 (K-Ras G12C); read-out: H358 Cell Viability IC50, NCI-H358, K-Ras G12C, 5-day treatment): > 10000 nM | IC50 (KRAS G12V): > 10000 nM
